Patent US9085608B2, “Treatment of biofilms” (LYTIX BIOPHARMA AS, priority 2008, dated 2015)
In brackets after ≈: the same amount, converted by molar mass. Entries after “also recorded” stand apart in the source; their conditions may differ.

Key:
[1] = tested on: S. haemolyticus TUH 51-07 biofilm; assay: Biofilm imaging, LIVE/DEAD staining and confocal laser scanning microscopy; assay type: cell-based, Staphylococcus haemolyticus; settings: 24 h treatment
Method: One ml aliquots of MHIIB-diluted overnight culture was used to grow S. haemolyticus TUH 51-07 biofilm on plastic coverslides (Thermanox, cellculture treated on one side, NUNC, Roskilde, Denmark) in 24-well dishes (Falcon 3047, Becton Dickinson, NJ, USA) for 24 h. The coverslides were then washed carefully with PBS, moved to a new plate and treated for 24 h with tetracycline 50 mg/L and 500 mg/L, vancomycin 50 mg/L and 500 mg/L, or Compound A 50 mg/L and 500 mg/L. The coverslides were washed again with […] and stained with a LIVE/DEAD kit (Invitrogen Molecular Probes, Eugene, Oreg., USA) following the manufacturer's instructions. This stain contains SYTO 9 (green fluorescent) and propidium iodide (PI; red fluorescent), both binding to DNA. When used alone, the SYTO 9 generally stains all bacteria in a population; both those with intact and those with damaged membranes. In contrast, PI penetrates only bacteria with damaged membranes, causing a reduction in the SYTO 9 stain green fluorescence when both dyes are present. We examined treated and untreated biofilms with a Leica TCS SP5 (Leica Microsystems CMS Gmbh, Mannheim, Germany) confocal laser scanning microscope (CLSM). Images were obtained using a 63×1.2 NA HCX PL APO water immersion lens. For detection of SYTO9 (green channel), we used the 488 nm line of the argon laser and a detection bandwidth of 495-515 nm. For PI detection (red channel), we used the 561 nm line and a detection bandwidth of 615-660 nm. The two fluorescent-signals were collected sequentially at 400 Hz. Image analyses and export was performed in Leica LAS AF version 1.8.2.

[2] = tested on: 24 h old biofilm of 6 different staphylococcal strains; assay: Biofilm metabolic activity, Alamar blue reduction; assay type: cell-based, S. epidermidis, S. haemolyticus, S. aureus; settings: 50 mg/L; mature biofilms from 4 out of the 6 strains tested
Method: The washed biofilms were subjected to treatment with antibiotics or SAMPs at different concentrations. Stock solutions of the tetracycline (Sigma Aldrich), vancomycin (Alpharma) and linezolid (Pfizer) were diluted in MHIIB to 5 mg/L, 50 mg/L and 500 mg/L, and rifampicin (Sigma Aldrich) was diluted in MHIIB to 0.01 mg/L, 0.1 mg/L and 1 mg/L. Trifluoroacetate salts of the SAMPs were dissolved in sterile water and diluted to 5 mg/L, 50 mg/L and 500 mg/L in MHIIB. 200 μl of antibiotics or SAMPs, in different concentrations, were added to each well and incubated for 24 h at 37° C. Positive controls were untreated biofilms only added 200 μl MHIIB. Negative controls were only 200 μl MHIIB, with no bacteria added.
We quantified the metabolic activity of biofilm with a slightly modified method previously described by Pettit et al. in Antimicrob. […] Briefly, the wells were washed twice with PBS. We then added 250 μl MHIIB with 5% Alamar blue (AB; Invitrogen, Carlsbad, Calif., USA) to each well. AB is a redox indicator which both fluoresces and changes colour in response to chemical reduction. The extent of reduction is a reflection of bacterial cell viability. After 1 h incubation at 37° C., absorbance was recorded at 570 and 600 nm using Versamax tuneable microplate reader (Molecular Devices, Sunnyvale, Calif., USA). […] The highest and lowest value of each run was excluded from the analyses, and the remaining 18 values were averaged.
We defined two levels of antimicrobial suppression of metabolic activity.

[3] = tested on: Staphylococcus aureus PIA 9; assay: microbe, parasite or virus in culture
Method: (§1) Bacteria were grown overnight at 37° C. in cation adjusted Mueller-Hinton II Broth (MHIIB).
(§2) We determined the MICs of oxacillin, gentamicin, tetracycline, vancomycin and linezolid using E-test (AB Biodisk, Solna, Sweden) and MICs of rifampicin using broth microdilution assay. Breakpoints were interpreted according to EUCAST criteria. […] All 3 SAMPs are tripeptides with two arginine residues providing their cationic moieties (FIG. 1). The lipophilic bulk is provided by a modified tryptophane derivate. […] The molecular weights of the SAMPs are in the range of 700-800 Dalton.

[4] = tested on: Staphylococcus aureus PIA90; assay: microbe, parasite or virus in culture
Method: as §1, §2

[5] = tested on: Staphylococcus haemolyticus TUH 51-03; assay: microbe, parasite or virus in culture
Method: as §1, §2

[6] = tested on: Staphylococcus haemolyticus TUH 51-07; assay: microbe, parasite or virus in culture
Method: as §1, §2

[7] = tested on: Staphylococcus epidermidis TUH 08-16; assay: microbe, parasite or virus in culture
Method: as §1, §2

[8] = tested on: Staphylococcus epidermidis RP62A ATCC 35984; assay: microbe, parasite or virus in culture
Method: as §1, §2

S. aureus PIA9 biofilm = assay: Biofilm metabolic activity, Alamar blue reduction; assay type: cell-based, Staphylococcus aureus
Method: (§3) Biofilm formation was induced in 96-well flat bottom microtitre plates (Nunclon Surface, NUNC, Roskilde, Denmark). First, overnight cultures were diluted 1:100 in MHIIB (S. epidermidis and S. haemolyticus) or tryptic soy broth (TSB) with 5% glucose and 5% NaCl (S. aureus). Two hundred of this bacterial suspension (10^7 cfu/ml) was added to each well and incubated for 24 h at 37° C. After 24 h the wells were carefully washed twice with phosphate-buffered saline (PBS) to remove planktonic bacteria. The washing procedure was evaluated by measuring metabolic activity of the PBS with the Alamar blue method, described in detail below. […]
(§4) We quantified the metabolic activity of biofilm with a slightly modified method previously described by Pettit et al. in Antimicrob. […] After 1 h incubation at 37° C., absorbance was recorded at 570 and 600 nm using Versamax tuneable microplate reader (Molecular Devices, Sunnyvale, Calif., USA). […]
(§5) The percent reduction of AB was calculated according to the manufacturer's formula (Invitrogen, Carlsbad, USA). We calculated mean and standard deviations (SD) of all repeated measurements. Pearson's two-tailed correlation between the AB method and the CV method (FIG. 2) was calculated on averaged data from all 6 staphylococcal strains. […]

[9] = tested on: six staphylococcal strains (2 S. epidermidis, 2 S. haemolyticus and 2 S. aureus); assay: Susceptibility testing under planktonic growth condition, EUCAST breakpoints; assay type: cell-based; settings: all 6 strains; EUCAST criteria
Method: The six staphylococcal strains (2 S. epidermidis, 2 S. haemolyticus and 2 S. aureus) used in this study were selected based on their previously known biofilm forming capacity (Table 1).
as §1
We determined the MICs of oxacillin, gentamicin, tetracycline, vancomycin and linezolid using E-test (AB Biodisk, Solna, Sweden) and MICs of rifampicin using broth microdilution assay. Breakpoints were interpreted according to EUCAST criteria. We selected 3 different SAMPs (Compounds A, B and C; Lytix Biopharma, Tromsø, Norway—see FIG. 1) based on previously known antimicrobial activities, and determined their exact MICs with broth microdilution assay. All 3 SAMPs are tripeptides with two arginine residues providing their cationic moieties (FIG. 1). The lipophilic bulk is provided by a modified tryptophane derivate. The difference between the compounds is the size of the C-terminal modification; Compound A has the smallest and Compound B has the largest C-terminal modification (FIG. 1). The molecular weights of the SAMPs are in the range of 700-800 Dalton.

[10] = tested on: S. haemolyticus TUH 51-07 biofilm; assay: Biofilm metabolic activity, Alamar blue reduction; assay type: cell-based, Staphylococcus haemolyticus; settings: 500 mg/L, 24 h
Method: as §3, §4, §5

S. aureus PIA 90 biofilm = assay: Biofilm metabolic activity, Alamar blue reduction; assay type: cell-based, Staphylococcus aureus
Method: as §3, §4, §5

**Q.** Which results are given for `CN[C@H](CC(C)C)C(=O)N[C@H]1C(=O)N[C@@H](CC(N)=O)C(=O)N[C@H]2C(=O)N[C@H]3C(=O)N[C@H](C(=O)N[C@H](C(=O)O)c4cc(O)cc(O)c4-c4cc3ccc4O)[C@H](O)c3ccc(c(Cl)c3)Oc3cc2cc(c3O[C@@H]2O[C@H](CO)[C@@H](O)[C@H](O)[C@H]2O[C@H]2C[C@](C)(N)[C@H](O)[C@H](C)O2)Oc2ccc(cc2Cl)[C@H]1O` [VAN, vancomycin]?
**A.** LIVE/DEAD staining of biofilm cells (CLSM) ([1]; 50 mg/L): predominantly green cells; also recorded: most bacteria were not killed; suppression of metabolic activity (AB reduction) [2]: strong suppression (A strong suppression was obtained if an agent, after adjusting for the negative control, at a certain concentration caused 75% reduction of AB compared to positive control); MIC ([3]; Staphylococcus aureus, PIA9): 2 µg/mL (≈ 1.38 µM); MIC ([4]; Staphylococcus aureus, PIA90): 2 µg/mL (≈ 1.38 µM); MIC ([5]; Staphylococcus haemolyticus, TUH5103): 4 µg/mL (≈ 2.76 µM); MIC ([6]; Staphylococcus haemolyticus, TUH5107): 2 µg/mL (≈ 1.38 µM); MIC ([7]; Staphylococcus epidermidis, TUH0816): 2 µg/mL (≈ 1.38 µM); MIC ([8]; Staphylococcus epidermidis, ATCC35984): 4 µg/mL (≈ 2.76 µM); resistance of biofilm (S. aureus PIA9 biofilm): completely resistant; susceptibility under planktonic growth [9]: susceptible; also recorded: sensitive

**Q.** How did the “LIVE/DEAD staining of biofilm cells (CLSM)” value ([1]; 500 mg/L) turn out when `CN(C)[C@@H]1C(=O)C(C(N)=O)=C(O)[C@@]2(O)C(=O)C3=C(O)c4c(O)cccc4[C@@](C)(O)[C@H]3C[C@@H]12` [TET, tetracycline] was run?
**A.** The value was “a significant part of the cells are still green; also recorded: still contained a significant number of living cells”.

**Q.** What about the MIC ([3]; planktonic, SA PIA 9) of the same compound?
**A.** The MIC was 0.5 µg/mL (≈ 1.13 µM).

**Q.** And the MIC ([4]; planktonic, SA PIA90)?
**A.** Its MIC is 0.5 µg/mL (≈ 1.13 µM).

**Q.** What about the MIC ([5]; planktonic, SH TUH 51-03) of the same compound?
**A.** The MIC was 1 µg/mL (≈ 2.25 µM).

**Q.** What about the MIC ([6]; planktonic, SH TUH 51-07) of the same compound?
**A.** Its MIC is 0.5 µg/mL (≈ 1.13 µM).

**Q.** And the MIC ([7]; planktonic, SE TUH 08-16)?
**A.** Its MIC is 2 µg/mL (≈ 4.5 µM).

**Q.** And the MIC ([8]; planktonic, SE RP62A ATCC 35984)?
**A.** The MIC was 0.5 µg/mL (≈ 1.13 µM).

**Q.** And the “metabolic activity in biofilm assay” value [10]?
**A.** The value was “hardly any measurable metabolic activity”.

**Q.** And the “suppression of metabolic activity (AB reduction)” value (S. aureus PIA 90 biofilm)?
**A.** The value was “complete suppression”.

**Q.** What about the “susceptibility under planktonic growth” value [9] of the same compound?
**A.** Its value is “susceptible; also recorded: sensitive”.
